Assay results published in publication PMC5218480 (PLoS ONE, 2017).

Tested on: MV-4-11 cells
Assay: Gene expression microarray analysis (Affymetrix PrimeView) and GSEA
Format: cell-based, human
Set-up: RFU PODN (11730768_x_at) / Fold change /veh PODN (11730768_x_at) / RFU LINC00158 (11744669_a_at) / Fold change /veh LINC00158 (11744669_a_at) / RFU DUSP10 (11751237_a_at) / Fold change /veh DUSP10 (11751237_a_at) / RFU ID3 (11757404_x_at) / Fold change /veh ID3 (11757404_x_at) / RFU PLEKHG5 (11737974_s_at) / Fold change /veh PLEKHG5 (11737974_s_at) / RFU LRRC4B (11730491_at) / Fold change /veh LRRC4B (11730491_at) / RFU GIMAP4 (11747438_a_at) / Fold change /veh GIMAP4 (11747438_a_at) / RFU KRT8 (11758183_x_at) / Fold change /veh KRT8 (11758183_x_at) / RFU CNN1 (11734310_a_at) / Fold change /veh CNN1 (11734310_a_at) / RFU VPS37D (11726825_at) / Fold change /veh VPS37D (11726825_at) / RFU C10orf10 (11716522_x_at) / Fold change /veh C10orf10 (11716522_x_at) / RFU KIR2DL2 /// KIR2DL4 /// KIR2DL5A /// KIR2DL5B /// KIR2DS1 /// KIR2DS2 /// KIR2DS3 /// KIR2DS4 /// KIR3DL3 /// KIR3DL3 /// KIR3DS1 (11738374_at) / Fold change /veh KIR2DL2 /// KIR2DL4 /// KIR2DL5A /// KIR2DL5B /// KIR2DS1 /// KIR2DS2 /// KIR2DS3 /// KIR2DS4 /// KIR3DL3 /// KIR3DL3 /// KIR3DS1 (11738374_at) / RFU C1QL1 (11718748_at) / Fold change /veh C1QL1 (11718748_at) / RFU TMPRSS4 (11747572_a_at) / Fold change /veh TMPRSS4 (11747572_a_at) / RFU HAMP (11756126_x_at) / Fold change /veh HAMP (11756126_x_at) / RFU RNFT2 (11725882_a_at) / Fold change /veh RNFT2 (11725882_a_at) / RFU NR4A2 (11747474_a_at) / Fold change /veh NR4A2 (11747474_a_at) / RFU ABCC12 (11746883_a_at) / Fold change /veh ABCC12 (11746883_a_at) / RFU TMEM136 (11760407_x_at) / Fold change /veh TMEM136 (11760407_x_at) / RFU CLDN22 /// WWC2 (11732394_at) / Fold change /veh CLDN22 /// WWC2 (11732394_at) / RFU HLA-DPB1 (11760878_x_at) / Fold change /veh HLA-DPB1 (11760878_x_at) / RFU SPINT1 (11716480_a_at) / Fold change /veh SPINT1 (11716480_a_at) / RFU GAP43 (11754022_s_at) / Fold change /veh GAP43 (11754022_s_at) / RFU A4GNT (11735810_at) / Fold change /veh A4GNT (11735810_at) / RFU PRB3 (11715151_x_at) / Fold change /veh PRB3 (11715151_x_at) / RFU TUBB4B (11761932_at) / Fold change /veh TUBB4B (11761932_at) / RFU CAPN14 (11732068_a_at) / Fold change /veh CAPN14 (11732068_a_at) / RFU TMCC2 (11721928_a_at) / Fold change /veh TMCC2 (11721928_a_at) / RFU IRGQ (11745062_a_at) / Fold change /veh IRGQ (11745062_a_at) / RFU FAM174B (11720279_a_at) / Fold change /veh FAM174B (11720279_a_at) / RFU TMPRSS4 (11748680_a_at) / Fold change /veh TMPRSS4 (11748680_a_at) / RFU FAM212B (11763350_a_at) / Fold change /veh FAM212B (11763350_a_at) / RFU PLEKHG5 (11743358_a_at) / Fold change /veh PLEKHG5 (11743358_a_at) / RFU ZSCAN30 (11745921_a_at) / Fold change /veh ZSCAN30 (11745921_a_at) / RFU CMKLR1 (11741424_a_at) / Fold change /veh CMKLR1 (11741424_a_at) / RFU LOC101060620 /// MAPK8IP1 (11723275_at) / Fold change /veh LOC101060620 /// MAPK8IP1 (11723275_at) / RFU SPTSSB (11747773_x_at) / Fold change /veh SPTSSB (11747773_x_at) / RFU PRSS12 (11739890_at) / Fold change /veh PRSS12 (11739890_at) / RFU BIN1 (11741810_x_at) / Fold change /veh BIN1 (11741810_x_at) / RFU WNT11 (11732464_a_at) / Fold change /veh WNT11 (11732464_a_at) / RFU C10orf10 (11716521_a_at) / Fold change /veh C10orf10 (11716521_a_at) / RFU C5orf56 (11738089_at) / Fold change /veh C5orf56 (11738089_at) / RFU CYB561 (11721691_x_at) / Fold change /veh CYB561 (11721691_x_at) / RFU ANKRD19P (11752326_a_at) / Fold change /veh ANKRD19P (11752326_a_at) / RFU OR2T12 /// OR2T33 /// OR2T8 (11738714_s_at) / Fold change /veh OR2T12 /// OR2T33 /// OR2T8 (11738714_s_at) / RFU VCAN (11748164_a_at) / Fold change /veh VCAN (11748164_a_at) / RFU JSRP1 (11732532_at) / Fold change /veh JSRP1 (11732532_at) / RFU KRTAP10-11 (11738290_x_at) / Fold change /veh KRTAP10-11 (11738290_x_at) / RFU MYO3A (11730013_a_at) / Fold change /veh MYO3A (11730013_a_at) / RFU EBF3 (11725865_a_at) / Fold change /veh EBF3 (11725865_a_at) / RFU CAMK2N1 (11719241_x_at) / Fold change /veh CAMK2N1 (11719241_x_at) / RFU C5orf56 (11738088_a_at) / Fold change /veh C5orf56 (11738088_a_at) / RFU OLFML3 (11715873_a_at) / Fold change /veh OLFML3 (11715873_a_at) / RFU LOC100653217 /// NTM (11731650_a_at) / Fold change /veh LOC100653217 /// NTM (11731650_a_at) / RFU MAPK11 (11762145_a_at) / Fold change /veh MAPK11 (11762145_a_at) / RFU FIZ1 (11724087_x_at) / Fold change /veh FIZ1 (11724087_x_at) / RFU OASL (11726364_x_at) / Fold change /veh OASL (11726364_x_at) / RFU SOX15 (11748057_x_at) / Fold change /veh SOX15 (11748057_x_at) / RFU CD79A (11719716_a_at) / Fold change /veh CD79A (11719716_a_at) / RFU HIST1H1D (11736915_at) / Fold change /veh HIST1H1D (11736915_at) / RFU CASKIN2 (11723855_a_at) / Fold change /veh CASKIN2 (11723855_a_at) / RFU LOC730098 (11760151_x_at) / Fold change /veh LOC730098 (11760151_x_at) / RFU OR4N2 (11742367_at) / Fold change /veh OR4N2 (11742367_at) / RFU PRRT2 (11749266_a_at) / Fold change /veh PRRT2 (11749266_a_at) / RFU SNX32 (11753110_a_at) / Fold change /veh SNX32 (11753110_a_at) / RFU CDHR5 (11726645_a_at) / Fold change /veh CDHR5 (11726645_a_at) / RFU RCAN1 (11760418_a_at) / Fold change /veh RCAN1 (11760418_a_at) / RFU FAM167A (11723789_a_at) / Fold change /veh FAM167A (11723789_a_at) / RFU FAM26E (11764081_at) / Fold change /veh FAM26E (11764081_at) / RFU ISYNA1 (11749810_s_at) / Fold change /veh ISYNA1 (11749810_s_at) / RFU ACY1 (11761880_at) / Fold change /veh ACY1 (11761880_at) / RFU 11764098_at / Fold change /veh 11764098_at / RFU SAMD14 (11745864_x_at) / Fold change /veh SAMD14 (11745864_x_at) / RFU NPB (11741838_a_at) / Fold change /veh NPB (11741838_a_at) / RFU TMPRSS6 (11731388_a_at) / Fold change /veh TMPRSS6 (11731388_a_at) / RFU KRTAP10-2 (11738614_at) / Fold change /veh KRTAP10-2 (11738614_at) / RFU ARHGAP8 /// PRR5-ARHGAP8 (11727945_x_at) / Fold change /veh ARHGAP8 /// PRR5-ARHGAP8 (11727945_x_at) / RFU KRTAP5-7 /// NADSYN1 (11734609_at) / Fold change /veh KRTAP5-7 /// NADSYN1 (11734609_at) / RFU RASL12 (11751679_a_at) / Fold change /veh RASL12 (11751679_a_at) / RFU CDKN2B (11736163_a_at) / Fold change /veh CDKN2B (11736163_a_at) / RFU PRF1 (11729649_at) / Fold change /veh PRF1 (11729649_at) / RFU, ZNF638 /// ZNF638-IT1 / Fold change vs veh, ZNF638 /// ZNF638-IT1 / RFU, PANK3 / Fold change vs veh, PANK3 / RFU, SH3YL1 / Fold change vs veh, SH3YL1 / RFU, ZEB2 / Fold change vs veh, ZEB2 / RFU, NRIP1 / Fold change vs veh, NRIP1 / RFU, PTTG1IP / Fold change vs veh, PTTG1IP / RFU, CAPN2 / Fold change vs veh, CAPN2 / RFU, MED14 / Fold change vs veh, MED14 / RFU, SNORA58 / Fold change vs veh, SNORA58 / RFU, C1orf63 / Fold change vs veh, C1orf63 / RFU, LRRFIP1 / Fold change vs veh, LRRFIP1 / RFU, NDUFAF7 / Fold change vs veh, NDUFAF7 / RFU, SLC12A2 / Fold change vs veh, SLC12A2 / RFU, IBTK / Fold change vs veh, IBTK / RFU, ESF1 / Fold change vs veh, ESF1 / Fold change vs veh, TMEM50B / RFU, TAOK1 / Fold change vs veh, TAOK1 / RFU, ACBD3 / Fold change vs veh, ACBD3 / RFU, TMA16 / Fold change vs veh, TMA16 / RFU, RWDD3 / Fold change vs veh, RWDD3 / RFU, BCAT1 / Fold change vs veh, BCAT1 / RFU, EDEM3 / Fold change vs veh, EDEM3 / RFU, TMEM33 / Fold change vs veh, TMEM33 / RFU, WDR75 / Fold change vs veh, WDR75 / RFU, AHCTF1 / Fold change vs veh, AHCTF1 / RFU, TFRC / Fold change vs veh, TFRC / RFU, ZDHHC17 / Fold change vs veh, ZDHHC17 / RFU, NOM1 / Fold change vs veh, NOM1 / RFU, ARL8B / Fold change vs veh, ARL8B / RFU, ZBTB11 / Fold change vs veh, ZBTB11 / RFU, TAMM41 / Fold change vs veh, TAMM41 / RFU, KIAA1704 /// LOC100996395 / Fold change vs veh, KIAA1704 /// LOC100996395 / RFU, ING1 / Fold change vs veh, ING1 / RFU, TRMT61B / Fold change vs veh, TRMT61B / RFU, FUBP3 / Fold change vs veh, FUBP3 / RFU, TP53 / Fold change vs veh, TP53 / RFU, TNKS2 / Fold change vs veh, TNKS2 / RFU, ZFP14 / Fold change vs veh, ZFP14 / RFU, ACTR2 / Fold change vs veh, ACTR2 / RFU, PPP3R1 / Fold change vs veh, PPP3R1 / RFU, PIK3R1 / Fold change vs veh, PIK3R1 / RFU, HNRNPA1 / Fold change vs veh, HNRNPA1 / RFU, RNF170 / Fold change vs veh, RNF170 / RFU, ZNF28 / Fold change vs veh, ZNF28 / RFU, RNGTT / Fold change vs veh, RNGTT / RFU, OGT / Fold change vs veh, OGT / RFU, BRD1 / Fold change vs veh, BRD1 / RFU, MARS / Fold change vs veh, MARS / RFU, ZNF655 / Fold change vs veh, ZNF655 / RFU, FAHD1 / Fold change vs veh, FAHD1 / RFU, BDP1 / Fold change vs veh, BDP1 / RFU, LRRCC1 / Fold change vs veh, LRRCC1 / RFU, ARID1A / Fold change vs veh, ARID1A / RFU, ZNF146 / Fold change vs veh, ZNF146 / RFU, ZNF330 / Fold change vs veh, ZNF330 / RFU, GPN3 / Fold change vs veh, GPN3 / RFU, C9orf123 / Fold change vs veh, C9orf123 / RFU, N4BP2L2 / Fold change vs veh, N4BP2L2 / RFU, ARFIP1 / Fold change vs veh, ARFIP1 / RFU, FAM179B / Fold change vs veh, FAM179B / RFU, BCL10 / Fold change vs veh, BCL10 / RFU, UHRF1BP1L / Fold change vs veh, UHRF1BP1L / RFU, BET1 / Fold change vs veh, BET1 / RFU, CNOT2 / Fold change vs veh, CNOT2 / RFU, ZNF268 / Fold change vs veh, ZNF268 / Fold change vs veh, ZNF507 / RFU, DGCR2 / Fold change vs veh, DGCR2 / RFU, WDSUB1 / Fold change vs veh, WDSUB1 / Fold change vs veh, HSP90B1 /// MIR3652 / RFU, ADSS / Fold change vs veh, ADSS / RFU, GK / Fold change vs veh, GK / RFU, ZNF148 / Fold change vs veh, ZNF148 / RFU, TAF9 / Fold change vs veh, TAF9 / RFU, SLC1A5 / Fold change vs veh, SLC1A5 / RFU, SLMO2 / Fold change vs veh, SLMO2 / RFU, ABCC4 / Fold change vs veh, ABCC4 / RFU, LOC101060439 /// RAP1B / Fold change vs veh, LOC101060439 /// RAP1B / RFU, RFX7 / Fold change vs veh, RFX7 / RFU, GTPBP10 / Fold change vs veh, GTPBP10 / RFU, CNEP1R1 / Fold change vs veh, CNEP1R1 / RFU, BIVM-ERCC5 /// ERCC5 / Fold change vs veh, BIVM-ERCC5 /// ERCC5 / RFU, ILF3 / Fold change vs veh, ILF3 / RFU 11762660_at / Fold change /veh 11762660_at / RFU VCAN (11757783_s_at) / Fold change /veh VCAN (11757783_s_at) / RFU DDX43 (11728927_at) / Fold change /veh DDX43 (11728927_at) / RFU KRT8 (11758188_x_at) / Fold change /veh KRT8 (11758188_x_at) / RFU NKD1 (11759106_at) / Fold change /veh NKD1 (11759106_at) / RFU SRD5A1 (11742802_a_at) / Fold change /veh SRD5A1 (11742802_a_at) / RFU TPSAB1 /// TPSB2 (11721975_s_at) / Fold change /veh TPSAB1 /// TPSB2 (11721975_s_at) / RFU GSTM3 (11746129_a_at) / Fold change /veh GSTM3 (11746129_a_at) / RFU IL23R (11737362_x_at) / Fold change /veh IL23R (11737362_x_at) / RFU TMEM51 (11727254_a_at) / Fold change /veh TMEM51 (11727254_a_at) / RFU PIWIL2 (11732686_x_at) / Fold change /veh PIWIL2 (11732686_x_at) / RFU ORM1 (11744905_x_at) / Fold change /veh ORM1 (11744905_x_at) / RFU CCDC152 (11743942_at) / Fold change /veh CCDC152 (11743942_at) / RFU ECM1 (11717891_a_at) / Fold change /veh ECM1 (11717891_a_at) / RFU IL23R (11748794_a_at) / Fold change /veh IL23R (11748794_a_at) / RFU TNFAIP8L3 (11732012_x_at) / Fold change /veh TNFAIP8L3 (11732012_x_at) / RFU MBOAT4 (11741988_at) / Fold change /veh MBOAT4 (11741988_at) / RFU 11764193_at / Fold change /veh 11764193_at / RFU TMEM53 (11763286_at) / Fold change /veh TMEM53 (11763286_at) / RFU MAGEB2 (11727129_at) / Fold change /veh MAGEB2 (11727129_at) / RFU TMEM200A (11744735_a_at) / Fold change /veh TMEM200A (11744735_a_at) / RFU CCDC152 (11751479_a_at) / Fold change /veh CCDC152 (11751479_a_at) / RFU FAM211A (11726209_a_at) / Fold change /veh FAM211A (11726209_a_at) / RFU RGS16 (11746705_a_at) / Fold change /veh RGS16 (11746705_a_at) / RFU VCAN (11755009_s_at) / Fold change /veh VCAN (11755009_s_at) / RFU RHOB (11743442_s_at) / Fold change /veh RHOB (11743442_s_at) / RFU RGS16 (11720943_a_at) / Fold change /veh RGS16 (11720943_a_at) / RFU RGS16 (11720944_at) / Fold change /veh RGS16 (11720944_at) / RFU, VPS4B / Fold change vs veh, VPS4B / RFU, CREB1 / Fold change vs veh, CREB1 / RFU, DNAJC13 / Fold change vs veh, DNAJC13 / RFU, GNAQ / Fold change vs veh, GNAQ / RFU, CDK5R1 / Fold change vs veh, CDK5R1 / RFU, ZRANB3 / Fold change vs veh, ZRANB3 / RFU, CUL4A / Fold change vs veh, CUL4A / RFU, CCNY / Fold change vs veh, CCNY / RFU, UFL1 / Fold change vs veh, UFL1 / RFU, COG3 / Fold change vs veh, COG3 / RFU, DIAPH2 / Fold change vs veh, DIAPH2 / RFU, SKA2 / Fold change vs veh, SKA2 / RFU, AFF3 / Fold change vs veh, AFF3 / RFU, LMF1 / Fold change vs veh, LMF1 / RFU, IPO11 / Fold change vs veh, IPO11 / RFU, DFFB / Fold change vs veh, DFFB / RFU, FOXP1 / Fold change vs veh, FOXP1 / RFU, CARD8 / Fold change vs veh, CARD8 / RFU, STRN3 / Fold change vs veh, STRN3 / RFU, ADK / Fold change vs veh, ADK / RFU, RASSF2 / Fold change vs veh, RASSF2 / RFU, WIPF1 / Fold change vs veh, WIPF1 / RFU, LARP1B / Fold change vs veh, LARP1B / RFU, RASA1 / Fold change vs veh, RASA1 / RFU, RB1 / Fold change vs veh, RB1 / RFU, PPFIA1 / Fold change vs veh, PPFIA1 / RFU, MAT2A / Fold change vs veh, MAT2A / RFU, CCT5 / Fold change vs veh, CCT5 / RFU, WDR92 / Fold change vs veh, WDR92 / RFU, CUX1 / Fold change vs veh, CUX1 / RFU, TTC7A / Fold change vs veh, TTC7A / RFU, TMEM135 / Fold change vs veh, TMEM135 / RFU, DEPTOR / Fold change vs veh, DEPTOR / RFU, CPM / Fold change vs veh, CPM / RFU, DNAJB6 / Fold change vs veh, DNAJB6 / RFU, CACNA2D3 / Fold change vs veh, CACNA2D3 / RFU, DTX4 / Fold change vs veh, DTX4 / RFU, TFCP2 / Fold change vs veh, TFCP2 / RFU, GMCL1 /// GMCL1P1 / Fold change vs veh, GMCL1 /// GMCL1P1 / RFU, AEBP2 / Fold change vs veh, AEBP2 / RFU, SNHG1 /// SNORD22 /// SNORD25 /// SNORD26 /// SNORD27 /// SNORD28 /// SNORD29 /// SNORD31 / Fold change vs veh, SNHG1 /// SNORD22 /// SNORD25 /// SNORD26 /// SNORD27 /// SNORD28 /// SNORD29 /// SNORD31 / Fold change (Aza/veh), C12orf56 (ProbeSet 11735607_a_at) / Fold change (ACY-1035/veh), C12orf56 (ProbeSet 11735607_a_at) / Fold change (Aza/veh), FGFR1OP (ProbeSet 11751329_s_at) / Fold change (ACY-1035/veh), FGFR1OP (ProbeSet 11751329_s_at) / Fold change (Aza/veh), VPS36 (ProbeSet 11739960_a_at) / Fold change (ACY-1035/veh), VPS36 (ProbeSet 11739960_a_at) / RFU SYPL1 (11715823_x_at) / Fold change /veh SYPL1 (11715823_x_at) / RFU IGFBP7 (11715501_s_at) / Fold change /veh IGFBP7 (11715501_s_at) / RFU REEP3 (11722064_at) / Fold change /veh REEP3 (11722064_at) / RFU IGLL1 (11728026_x_at) / Fold change /veh IGLL1 (11728026_x_at): dose or concentration left out as unconfirmed
Settings: MV-4-11 cells, 48 hours

In the case of `Nc1ccc(-c2cccs2)cc1NC(=O)c1ccc2c(c1)cc(C1CC1)n2CCN1CCOCC1` [ACY-1035], the “RFU CNN1 (11734310_a_at)” value is reported as 26.40 RFU.
